Assay results taken from publication PMC9648375, “Identification of the first-in-class dual inhibitors of human DNA topoisomerase IIα and indoleamine-2,3-dioxygenase 1 (IDO 1) with strong anticancer properties” (Journal of Enzyme Inhibition and Medicinal Chemistry, 2022).

Molecular target: T1, human DNA topoisomerase IIα (Homo sapiens, UniProt P11388)
T1 construct: purchased Inspiralis Ltd, Norwich, UK
Assay: Stabilisation of covalent DNA-enzyme cleavage complex (Topoisomerase II Drug Screening Kit)
Assay type: biochemical
Settings: 50 µM (Figure S4), linear DNA cleavage intermediate
Procedure: As relaxation of supercoiled DNA (scDNA) is one of numerous functions of topoisomerase IIα, so the appearance/disappearance of relaxed DNA bands during agarose gel electrophoresis can be used to identify compounds that inhibit the enzyme.
Determination of the inhibitory effect of compounds 1-10 against human topoisomerase Iiα was performed using Human Topoisomerase II Relaxation Assay (Inspiralis Ltd, Norwich, UK) and Topoisomerase II Drug Screening Kit (TopoGEN Inc., Buena Vista, CO, USA) following the manufacturer’s instructions. Briefly, the increased concentrations of the compounds were mixed with the reaction mixture, incubated according to the protocol and, after reaction termination, the samples were analysed by electrophoresis using 1% agarose gel containing […] of ethidium bromide in Tris-Acetate-EDTA (TAE) buffer. Visualisation of the bands was performed using an enhanced chemiluminescence system (Syngene G:BOX Chemi XT4, Cambridge, UK). For the quantitative determination of topoisomerase II inhibition, images were densitometrically scanned.
topoII + compound 4 (100 µM); lane 7: scDNA + topoII + compound 5 (100 µM); lane 8: scDNA + topoII
+ compound 6 (100µM); lane 9: scDNA + topoII + compound 7 (100 µM); lane 10: scDNA + topoII +
compound 8 (100µM); lane 11: scDNA + topoII + compound 9 (100µM); lane 12: scDNA + topoII +
Figure S4. […] Lane 1: scDNA; […]

T1 sequence (P11388 whole entry): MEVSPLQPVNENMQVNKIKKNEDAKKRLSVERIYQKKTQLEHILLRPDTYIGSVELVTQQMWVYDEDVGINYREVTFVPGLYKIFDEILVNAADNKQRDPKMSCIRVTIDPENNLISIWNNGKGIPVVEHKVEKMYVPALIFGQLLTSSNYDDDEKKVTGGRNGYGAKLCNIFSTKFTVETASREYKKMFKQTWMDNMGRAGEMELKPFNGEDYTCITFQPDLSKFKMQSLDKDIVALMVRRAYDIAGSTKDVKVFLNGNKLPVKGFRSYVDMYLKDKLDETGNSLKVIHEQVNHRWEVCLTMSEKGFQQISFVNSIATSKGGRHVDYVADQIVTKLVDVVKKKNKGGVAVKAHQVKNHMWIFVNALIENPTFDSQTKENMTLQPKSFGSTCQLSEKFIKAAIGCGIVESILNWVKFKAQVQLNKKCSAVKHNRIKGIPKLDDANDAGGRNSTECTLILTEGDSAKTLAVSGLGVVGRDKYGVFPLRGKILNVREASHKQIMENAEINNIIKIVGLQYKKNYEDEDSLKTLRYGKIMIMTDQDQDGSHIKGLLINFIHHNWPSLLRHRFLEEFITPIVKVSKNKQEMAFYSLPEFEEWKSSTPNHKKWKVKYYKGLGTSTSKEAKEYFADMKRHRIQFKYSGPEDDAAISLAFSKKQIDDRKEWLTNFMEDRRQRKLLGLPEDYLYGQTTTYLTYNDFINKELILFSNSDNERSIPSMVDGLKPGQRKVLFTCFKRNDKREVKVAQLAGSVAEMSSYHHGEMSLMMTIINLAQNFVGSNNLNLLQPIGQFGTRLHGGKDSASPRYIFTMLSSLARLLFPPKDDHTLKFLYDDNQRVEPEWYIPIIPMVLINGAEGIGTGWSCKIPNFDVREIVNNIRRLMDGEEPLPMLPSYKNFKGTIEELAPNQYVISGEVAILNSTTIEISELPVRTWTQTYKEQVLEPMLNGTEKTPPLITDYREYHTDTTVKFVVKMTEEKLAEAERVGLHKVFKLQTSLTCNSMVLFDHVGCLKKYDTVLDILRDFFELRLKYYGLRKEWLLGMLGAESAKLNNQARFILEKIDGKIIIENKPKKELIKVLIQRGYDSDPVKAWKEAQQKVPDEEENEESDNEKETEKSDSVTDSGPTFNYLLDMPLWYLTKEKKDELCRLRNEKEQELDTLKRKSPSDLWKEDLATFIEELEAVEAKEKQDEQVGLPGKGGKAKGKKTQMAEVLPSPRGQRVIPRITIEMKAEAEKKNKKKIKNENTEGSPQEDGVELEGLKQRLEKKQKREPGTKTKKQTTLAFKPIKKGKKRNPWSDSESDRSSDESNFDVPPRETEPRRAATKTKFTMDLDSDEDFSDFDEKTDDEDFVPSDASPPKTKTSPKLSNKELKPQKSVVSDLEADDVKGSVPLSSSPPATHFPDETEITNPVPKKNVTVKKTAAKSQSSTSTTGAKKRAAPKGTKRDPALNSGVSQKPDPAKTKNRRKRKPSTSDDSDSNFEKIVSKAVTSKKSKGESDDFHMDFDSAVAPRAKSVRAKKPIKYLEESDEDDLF

COc1cc([C@@H]2c3cc4c(cc3[C@@H](O[C@@H]3O[C@@H]5CO[C@@H](C)O[C@H]5[C@H](O)[C@H]3O)[C@H]3COC(=O)[C@H]23)OCO4)cc(OC)c1O [Etoposide, etoposide, reference compound]
stabilisation of the covalent DNA-enzyme cleavage complex: able to stabilise the covalent DNA-enzyme cleavage complex
